Measured values from patent US20250136553A1, “ACYLSULFONAMIDE KAT6A INHIBITORS” (Olema Pharmaceuticals, Inc., priority 2023, published 2025).

What follows are molecules tested against human-KAT6A (MYST domain 507-778 aa) (Homo sapiens (Human), UniProt Q92794) (assay: KAT6A biochemical assay (TR-FRET)). Settings: @ 1 μM; reported where IC50 could not be determined; read-out: Percent inhibition at specific concentration (KAT6A).
Description: TR-FRET based methods were used for assaying compounds of the present invention for KAT6A enzyme inhibitory activity. TR-FRET is a homogeneous proximity assay where Europium-labelled anti-acetyl lysine antibody binds to the acetylated substrate labelled with biotin, which in turn binds to streptavidin-labelled APC fluorescence acceptor. Europium can transfer energy to APC in the complex and the interaction of two dye-labelled binding partners is detected by the energy transfer between a donor and an acceptor dye and the subsequent light emission by the acceptor dye. KAT6A transfer an acetyl group from acetyl CoA to lysine amino acids of histones/target proteins. […] The selected compound of the present invention and enzyme are incubated for 30 min on plate shaker at 300 rpm at 25° C. Next, 5 μL of substrate mix containing histone H4 peptide and acetyl-CoA in assay buffer is added to the plate. The final concentrations of H4 peptide and acetyl-CoA are 200 nM and 600 nM, respectively. Following 60 min reaction at 25° C. on plate shaker at 300 rpm, 5 μL of detection mix containing Europium-labelled anti-acetyl antibody and streptavidin-APC is added to the reaction wells. The plate is further incubated at 25° C. on shaker at 300 rpm and is read in TR-FRET mode (Ex:340 nm; Em: 615 nm and 665 nm) on a plate reader to achieve ˜5-7-fold activity. The percent inhibition was calculated from the ratio of the fluorescence (FL) intensities [(F665/F615)×10000) using the formula […]. IC50 values of the compounds were determined by fitting the dose-response data to sigmoidal curve fitting equation using Graph pad prism software V9.

Chain of human-KAT6A (MYST domain 507-778 aa) (Q92794 507-778): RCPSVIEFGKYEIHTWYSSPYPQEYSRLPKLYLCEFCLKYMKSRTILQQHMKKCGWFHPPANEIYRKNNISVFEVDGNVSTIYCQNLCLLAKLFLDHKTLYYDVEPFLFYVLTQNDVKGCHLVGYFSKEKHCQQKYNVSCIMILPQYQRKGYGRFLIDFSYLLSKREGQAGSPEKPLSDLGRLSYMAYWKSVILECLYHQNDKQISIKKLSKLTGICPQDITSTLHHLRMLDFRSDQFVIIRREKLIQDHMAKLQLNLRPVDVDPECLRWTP

Structure (SMILES)	inhibition at 1 µM [%]
COc1cccc(OC)c1S(=O)(=O)NC(=O)c1ccc(Cn2cccn2)c(OC(F)F)n1 [Compound 215, 5-((1H-pyrazol-1-yl)methyl)-6-(difluoromethoxy)-N-((2,6-dimethoxyphenyl)sulfonyl)picolinamide]	16

Same assay, conditions: TR-FRET; histone H4 peptide 200 nM, acetyl-CoA 600 nM; read-out: KAT6A IC50

Structure (SMILES)	IC50 [nM]
COc1cc(C(=O)NS(=O)(=O)c2c(OC)ccc(C)c2OC)ccc1Cn1cccn1 [Compound 60, 4-((1H-pyrazol-1-yl)methyl)-N-((2,6-dimethoxy-3-methylphenyl)sulfonyl)-3-methoxybenzamide]	8
COc1cc(C(=O)NS(=O)(=O)c2c(OC)ccc(C3CC3)c2OC)ccc1Cn1cccn1 [Compound 61, 4-((1H-pyrazol-1-yl)methyl)-N-((3-cyclopropyl-2,6-dimethoxyphenyl)sulfonyl)-3-methoxybenzamide]	6
CCc1ccc(OC)c(S(=O)(=O)NC(=O)c2ccc(Cn3cccn3)c(OC)c2)c1OC [Compound 66, 4-((1H-pyrazol-1-yl)methyl)-N-((3-ethyl-2,6-dimethoxyphenyl)sulfonyl)-3-methoxybenzamide]	13
CCOc1cccc(OC)c1S(=O)(=O)NC(=O)c1ccc(Cn2cccn2)c(OC)c1 [Compound 67, 4-((1H-pyrazol-1-yl)methyl)-N-((2-ethoxy-6-methoxyphenyl)sulfonyl)-3-methoxybenzamide]	11
COc1cc(C(=O)NS(=O)(=O)c2c(OC)cccc2OCC(F)(F)F)ccc1Cn1cccn1 [Compound 68, 4-((1H-pyrazol-1-yl)methyl)-3-methoxy-N-((2-methoxy-6-(2,2,2-trifluoroethoxy)phenyl)sulfonyl)benzamide]	23
COc1cccc(OC)c1S(=O)(=O)NC(=O)c1ccc(Cn2cccn2)c(OC)c1F [Compound 69, 4-((1H-pyrazol-1-yl)methyl)-N-((2,6-dimethoxyphenyl)sulfonyl)-2-fluoro-3-methoxybenzamide]	114
COc1cc(C(=O)NS(=N)(=O)c2c(OC)cccc2OC)ccc1Cn1cccn1 (stereo not drawn) [Compound 71, 4-((1H-pyrazol-1-yl)methyl)-N-(2,6-dimethoxyphenylsulfonimidoyl)-3-methoxybenzamide]	34
COc1ccc(C(C)(C)C)cc1S(=O)(=O)NC(=O)c1ccc(Cn2cccn2)cn1 [Compound 201, 5-((1H-pyrazol-1-yl)methyl)-N-((5-(tert-butyl)-2-methoxyphenyl)sulfonyl)picolinamide]	731
COc1cc(C(=O)NS(=O)(=O)c2c(OC)cccc2OC)cnc1Cn1cccn1 [Compound 202, 6-((1H-pyrazol-1-yl)methyl)-N-((2,6-dimethoxyphenyl)sulfonyl)-5-methoxynicotinamide]	104
CCc1ccc(OC)c(S(=O)(=O)NC(=O)c2ccc(Cn3cccn3)c(OC)n2)c1 [Compound 204, 5-((1H-pyrazol-1-yl)methyl)-N-((5-ethyl-2-methoxyphenyl)sulfonyl)-6-methoxypicolinamide]	6
COc1ccc(C(C)(C)C)cc1S(=O)(=O)NC(=O)c1ccc(Cn2cccn2)c(OC)n1 [Compound 205, 5-((1H-pyrazol-1-yl)methyl)-N-((5-(tert-butyl)-2-methoxyphenyl)sulfonyl)-6-methoxypicolinamide]	8
COc1ccc(C2CC2)cc1S(=O)(=O)NC(=O)c1ccc(Cn2cccn2)c(OC)n1 [Compound 206, 5-((1H-pyrazol-1-yl)methyl)-N-((5-cyclopropyl-2-methoxyphenyl)sulfonyl)-6-methoxypicolinamide]	8
COc1ccc(C(F)(F)F)cc1S(=O)(=O)NC(=O)c1ccc(Cn2cccn2)c(OC)n1 [Compound 207, 5-((1H-pyrazol-1-yl)methyl)-6-methoxy-N-((2-methoxy-5-(trifluoromethyl)phenyl)sulfonyl)picolinamide]	10
COc1ccccc1S(=O)(=O)NC(=O)c1ccc(Cn2cccn2)c(OC)n1 [Compound 208, 5-((1H-pyrazol-1-yl)methyl)-6-methoxy-N-((2-methoxyphenyl)sulfonyl)picolinamide]	22
COc1cccc(OC)c1S(=O)(=O)NC(=O)c1ccc(Cn2cccn2)c(C)n1 [Compound 209, 5-((1H-pyrazol-1-yl)methyl)-N-((2,6-dimethoxyphenyl)sulfonyl)-6-methylpicolinamide]	71
CCc1ccc(OC)c(S(=O)(=O)NC(=O)c2cc(OC)c(Cn3cccn3)cn2)c1 [Compound 210, 5-((1H-pyrazol-1-yl)methyl)-N-((5-ethyl-2-methoxyphenyl)sulfonyl)-4-methoxypicolinamide]	64

Structure (SMILES)	IC50 [nM]
COc1ccc2c(c1S(=O)(=O)NC(=O)c1ccc(Cn3cccn3)c(OC)n1)OCC2 [Compound 211, 5-((1H-pyrazol-1-yl)methyl)-6-methoxy-N-((6-methoxy-2,3-dihydrobenzofuran-7-yl)sulfonyl)picolinamide]	8
COc1cc(C(=O)NS(=O)(=O)c2c(OC)cccc2OC)ncc1Cn1cccn1 [Compound 212, 5-((1H-pyrazol-1-yl)methyl)-N-((2,6-dimethoxyphenyl)sulfonyl)-4-methoxypicolinamide]	140
COc1cc2c(cc1S(=O)(=O)NC(=O)c1ccc(Cn3cccn3)c(OC)n1)CCC2 [Compound 213, 5-((1H-pyrazol-1-yl)methyl)-6-methoxy-N-((6-methoxy-2,3-dihydro-1H-inden-5-yl)sulfonyl)picolinamide]	12
COc1ccc(C)cc1S(=O)(=O)NC(=O)c1ccc(Cn2cccn2)c(OC)n1 [Compound 214, 5-((1H-pyrazol-1-yl)methyl)-6-methoxy-N-((2-methoxy-5-methylphenyl)sulfonyl)picolinamide]	12
COc1ccc2c(c1S(=O)(=O)NC(=O)c1ccc(Cn3cccn3)c(OC)n1)CCC2 [Compound 216, 5-((1H-pyrazol-1-yl)methyl)-6-methoxy-N-((5-methoxy-2,3-dihydro-1H-inden-4-yl)sulfonyl)picolinamide]	12
COc1ccc2c(c1S(=O)(=O)NC(=O)c1ccc(Cn3cccn3)c(OC)n1)CCCC2 [Compound 217, 5-((1H-pyrazol-1-yl)methyl)-6-methoxy-N-((2-methoxy-5,6,7,8-tetrahydronaphthalen-1-yl)sulfonyl)picolinamide]	11
CCOc1cccc(OC)c1S(=O)(=O)NC(=O)c1ccc(Cn2cccn2)c(OC)n1 [Compound 218, 5-((1H-pyrazol-1-yl)methyl)-N-((2-ethoxy-6-methoxyphenyl)sulfonyl)-6-methoxypicolinamide]	8
COc1cccc(OC2CCC2)c1S(=O)(=O)NC(=O)c1ccc(Cn2cccn2)c(OC)n1 [Compound 219, 5-((1H-pyrazol-1-yl)methyl)-N-((2-cyclobutoxy-6-methoxyphenyl)sulfonyl)-6-methoxypicolinamide]	9
COc1cccc(OC(F)F)c1S(=O)(=O)NC(=O)c1ccc(Cn2cccn2)c(OC)n1 [Compound 220, 5-((1H-pyrazol-1-yl)methyl)-N-((2-(difluoromethoxy)-6-methoxyphenyl)sulfonyl)-6-methoxypicolinamide]	7
COc1cccc(OC(C)C)c1S(=O)(=O)NC(=O)c1ccc(Cn2cccn2)c(OC)n1 [Compound 221, 5-((1H-pyrazol-1-yl)methyl)-N-((2-isopropoxy-6-methoxyphenyl)sulfonyl)-6-methoxypicolinamide]	5
COc1ccc(C)c(OC)c1S(=O)(=O)NC(=O)c1ccc(Cn2cccn2)c(OC)n1 [Compound 222, 5-((1H-pyrazol-1-yl)methyl)-N-((2,6-dimethoxy-3-methylphenyl)sulfonyl)-6-methoxypicolinamide]	18
COc1ccc(C2CC2)c(OC)c1S(=O)(=O)NC(=O)c1ccc(Cn2cccn2)c(OC)n1 [Compound 223, 5-((1H-pyrazol-1-yl)methyl)-N-((3-cyclopropyl-2,6-dimethoxyphenyl)sulfonyl)-6-methoxypicolinamide]	17
COc1cc(OC)c(S(=O)(=O)NC(=O)c2ccc(Cn3cccn3)c(OC)n2)c(OC)c1 [Compound 224, 5-((1H-pyrazol-1-yl)methyl)-6-methoxy-N-((2,4,6-trimethoxyphenyl)sulfonyl)picolinamide]	11
CCc1ccc(OC)c(S(=O)(=O)NC(=O)c2ccc(Cn3cccn3)c(OC)n2)c1OC [Compound 225, 5-((1H-pyrazol-1-yl)methyl)-N-((3-ethyl-2,6-dimethoxyphenyl)sulfonyl)-6-methoxypicolinamide]	10
COc1ccc(S(=O)(=O)NC(=O)c2ccc(Cn3cccn3)c(OC)n2)c(OC)c1 [Compound 226, 5-((1H-pyrazol-1-yl)methyl)-N-((2,4-dimethoxyphenyl)sulfonyl)-6-methoxypicolinamide]	27
COc1cccc(OCC(F)(F)F)c1S(=O)(=O)NC(=O)c1ccc(Cn2cccn2)c(OC)n1 [Compound 227, 5-((1H-pyrazol-1-yl)methyl)-6-methoxy-N-((2-methoxy-6-(2,2,2-trifluoroethoxy)phenyl)sulfonyl)picolinamide]	11
